Patent US12662479B2 (Foghorn Therapeutics Inc., priority 2020, dated 2026)

How the values were obtained:
HiBit-BRM fusion protein = biological target: T1, HiBit-BRM fusion protein (Homo sapiens, UniProt P51531); assay: HiBiT-BRM cell-based degradation assay (Nano-Glo HiBiT Lytic Detection, 24 h); details: HeLa cells expressing HiBiT-BRM; for DC50: read-out: BRM HiBit Degradation IC50; for BRM HiBit Degradation Maximum measured: top dose 30 μM
T1 construct: expressed in transfected cells
Procedure, shortened: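 Luminescence from reconstituted NanoBiT luciferase in lysed HeLa HiBiT-BRM cells served as the measure of remaining BRM after 24 h treatment. Compounds were tested from 30 μM final downward in 3-fold steps. DMSO and 2 μM of a standard BRM/BRG1 degrader defined the scale limits.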

[1] = biological target: T2, HiBit-BRG1 fusion protein (Homo sapiens, UniProt P51532); assay: HiBiT-BRG1 cell-based degradation assay (Nano-Glo HiBiT Lytic Detection, 24 h); details: HeLa cells expressing HiBit-BRG1 and LgBit; for DC50: read-out: BRG1 HiBit Degradation IC50; for Dmax: HeLa, top dose 30 μM, read-out: BRG1 HiBit Degradation Maximum measured
T2 construct: expressed in transfected cells
Procedure, shortened: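 Stable HeLa line expressing HiBiT-BRG1 and LgBiT, seeded at 5000 cells/well; luminescence read after lytic Nano-Glo HiBiT reagent and 10 min shaking at RT. % degradation normalised between DMSO (high control) and 2 μM reference BRM/BRG1 degrader (low control).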

T2 sequence (P51532 whole entry, the tested form may be a part): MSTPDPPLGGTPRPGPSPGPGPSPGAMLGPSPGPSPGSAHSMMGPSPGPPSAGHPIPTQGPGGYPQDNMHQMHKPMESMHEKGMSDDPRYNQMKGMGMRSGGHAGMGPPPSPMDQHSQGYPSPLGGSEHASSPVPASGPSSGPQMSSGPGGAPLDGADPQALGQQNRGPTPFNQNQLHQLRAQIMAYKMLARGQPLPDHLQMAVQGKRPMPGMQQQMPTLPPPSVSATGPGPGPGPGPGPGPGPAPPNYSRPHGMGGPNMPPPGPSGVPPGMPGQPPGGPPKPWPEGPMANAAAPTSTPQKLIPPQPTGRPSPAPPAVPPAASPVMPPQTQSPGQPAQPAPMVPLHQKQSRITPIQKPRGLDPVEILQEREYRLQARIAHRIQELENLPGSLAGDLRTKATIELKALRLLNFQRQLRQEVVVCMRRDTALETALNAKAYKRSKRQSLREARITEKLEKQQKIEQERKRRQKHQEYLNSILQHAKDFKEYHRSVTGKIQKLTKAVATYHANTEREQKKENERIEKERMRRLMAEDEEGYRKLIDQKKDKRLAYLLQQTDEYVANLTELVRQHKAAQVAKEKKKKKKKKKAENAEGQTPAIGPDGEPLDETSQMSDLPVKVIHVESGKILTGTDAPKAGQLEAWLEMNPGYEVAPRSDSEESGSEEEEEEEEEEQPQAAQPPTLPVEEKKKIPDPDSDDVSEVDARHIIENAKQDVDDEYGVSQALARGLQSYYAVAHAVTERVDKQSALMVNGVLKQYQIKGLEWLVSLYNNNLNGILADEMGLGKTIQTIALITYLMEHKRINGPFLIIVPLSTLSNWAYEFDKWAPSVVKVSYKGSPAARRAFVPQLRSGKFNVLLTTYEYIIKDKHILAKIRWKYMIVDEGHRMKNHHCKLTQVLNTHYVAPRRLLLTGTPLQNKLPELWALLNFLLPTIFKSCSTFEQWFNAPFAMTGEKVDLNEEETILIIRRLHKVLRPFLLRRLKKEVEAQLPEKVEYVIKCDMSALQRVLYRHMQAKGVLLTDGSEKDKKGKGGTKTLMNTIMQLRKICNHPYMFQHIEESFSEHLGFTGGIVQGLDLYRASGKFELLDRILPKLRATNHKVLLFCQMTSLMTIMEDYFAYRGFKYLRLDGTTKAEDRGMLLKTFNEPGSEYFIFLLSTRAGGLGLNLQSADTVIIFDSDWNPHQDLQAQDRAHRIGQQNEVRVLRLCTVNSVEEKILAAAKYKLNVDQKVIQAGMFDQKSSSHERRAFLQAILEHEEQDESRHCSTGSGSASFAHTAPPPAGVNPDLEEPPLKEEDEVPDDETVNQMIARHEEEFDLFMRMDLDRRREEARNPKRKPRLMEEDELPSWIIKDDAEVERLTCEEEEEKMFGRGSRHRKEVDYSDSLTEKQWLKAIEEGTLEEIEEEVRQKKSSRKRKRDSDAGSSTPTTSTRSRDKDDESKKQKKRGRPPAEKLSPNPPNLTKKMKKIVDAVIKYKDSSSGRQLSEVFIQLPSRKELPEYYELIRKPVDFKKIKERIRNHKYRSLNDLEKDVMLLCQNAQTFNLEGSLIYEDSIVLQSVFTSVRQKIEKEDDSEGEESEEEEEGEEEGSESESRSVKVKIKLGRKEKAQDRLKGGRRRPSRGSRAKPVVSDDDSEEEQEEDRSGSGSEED
T1 sequence (P51531 whole entry, the tested form may be a part): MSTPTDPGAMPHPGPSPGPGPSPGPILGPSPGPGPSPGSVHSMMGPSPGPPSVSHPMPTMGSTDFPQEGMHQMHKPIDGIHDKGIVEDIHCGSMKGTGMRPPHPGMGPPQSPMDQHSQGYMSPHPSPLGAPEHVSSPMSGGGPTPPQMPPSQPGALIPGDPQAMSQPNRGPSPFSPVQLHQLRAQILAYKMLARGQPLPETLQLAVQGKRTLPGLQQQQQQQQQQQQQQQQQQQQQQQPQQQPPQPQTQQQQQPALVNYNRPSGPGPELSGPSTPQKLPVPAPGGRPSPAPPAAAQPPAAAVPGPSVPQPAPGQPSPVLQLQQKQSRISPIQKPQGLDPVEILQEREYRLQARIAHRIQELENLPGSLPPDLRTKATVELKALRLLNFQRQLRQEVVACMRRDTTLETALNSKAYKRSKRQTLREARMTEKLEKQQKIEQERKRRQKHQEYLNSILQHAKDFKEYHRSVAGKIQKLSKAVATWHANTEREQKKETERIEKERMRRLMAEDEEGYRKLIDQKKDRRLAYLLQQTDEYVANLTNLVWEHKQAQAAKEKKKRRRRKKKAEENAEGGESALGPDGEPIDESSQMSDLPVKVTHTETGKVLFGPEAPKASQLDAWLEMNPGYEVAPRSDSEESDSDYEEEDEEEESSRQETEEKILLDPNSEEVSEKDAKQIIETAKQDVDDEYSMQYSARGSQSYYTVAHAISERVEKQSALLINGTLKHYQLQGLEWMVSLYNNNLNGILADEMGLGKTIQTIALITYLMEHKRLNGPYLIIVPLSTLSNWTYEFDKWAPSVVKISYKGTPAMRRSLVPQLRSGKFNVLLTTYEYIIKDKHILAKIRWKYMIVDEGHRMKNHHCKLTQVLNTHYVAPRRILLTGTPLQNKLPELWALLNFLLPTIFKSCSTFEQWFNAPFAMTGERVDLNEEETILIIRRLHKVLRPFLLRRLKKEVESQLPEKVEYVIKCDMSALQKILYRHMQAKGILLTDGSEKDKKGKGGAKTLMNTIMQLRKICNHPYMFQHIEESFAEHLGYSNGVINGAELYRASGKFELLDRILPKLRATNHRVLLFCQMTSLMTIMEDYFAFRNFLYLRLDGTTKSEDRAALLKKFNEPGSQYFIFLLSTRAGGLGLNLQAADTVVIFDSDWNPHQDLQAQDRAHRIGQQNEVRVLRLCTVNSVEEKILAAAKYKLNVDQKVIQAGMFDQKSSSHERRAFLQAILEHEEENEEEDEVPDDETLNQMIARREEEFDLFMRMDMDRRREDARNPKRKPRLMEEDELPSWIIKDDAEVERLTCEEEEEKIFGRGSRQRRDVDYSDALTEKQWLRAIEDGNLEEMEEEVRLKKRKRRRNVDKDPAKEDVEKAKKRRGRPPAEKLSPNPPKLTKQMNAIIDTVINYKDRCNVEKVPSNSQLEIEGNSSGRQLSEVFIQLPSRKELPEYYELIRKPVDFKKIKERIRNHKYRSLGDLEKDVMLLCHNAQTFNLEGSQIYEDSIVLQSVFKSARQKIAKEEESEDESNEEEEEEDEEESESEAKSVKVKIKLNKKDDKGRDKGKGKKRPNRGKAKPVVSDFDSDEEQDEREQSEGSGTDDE

| Compound | DC50 (HiBit-BRM fusion protein) | BRM HiBit Degradation Maximum measured (HiBit-BRM fusion protein) | DC50 [1] | Dmax [1] |
| --- | --- | --- | --- | --- |
| CS(=O)(=O)n1ccc(C(=O)N[C@@H](CCOCCCC(=O)NCCOc2cccc(OCCNc3cccc4c3C(=O)N(C3CCC(=O)NC3=O)C4=O)c2)C(=O)Nc2nc(-c3ccccc3)cs2)c1 (stereo partly drawn) [Compound 270, (2S)-4-[3-([2-[3-(2-[[2-(2,6-dioxopiperidin-3-yl)-1,3-dioxoisoindol-4-yl]amino]ethoxy)phenoxy]ethyl]carbamoyl)propoxy]-2-[(1-methanesulfonylpyrrol-3-yl)formamido]-N-(4-phenyl-1,3-thiazol-2-yl)butanamide] | > 10 µM | C (‘C’ = Maximum degradation <50%) | > 10 µM | < 50% |
| CS(=O)(=O)n1ccc(C(=O)N[C@@H](CCOCCCC(=O)NCCCC#Cc2ccc3c(c2)C(=O)N(C2CCC(=O)NC2=O)C3=O)C(=O)Nc2nc(-c3ccccc3)cs2)c1 (stereo partly drawn) [Compound 271, (2S)-4-[3-([5-[2-(2,6-dioxopiperidin-3-yl)-1,3-dioxoisoindol-5-yl]pent-4-yn-1-yl]carbamoyl)propoxy]-2-[(1-methanesulfonylpyrrol-3-yl)formamido]-N-(4-phenyl-1,3-thiazol-2-yl)butanamide] | > 10 µM | C (‘C’ = Maximum degradation <50%) | > 10 µM | < 50% |
| CS(=O)(=O)n1ccc(C(=O)N[C@@H](CCOCCCC(=O)NCCCC#Cc2cccc3c2C(=O)N(C2CCC(=O)NC2=O)C3=O)C(=O)Nc2nc(-c3ccccc3)cs2)c1 (stereo partly drawn) [Compound 272, (2S)-4-[3-([5-[2-(2,6-dioxopiperidin-3-yl)-1,3-dioxoisoindol-4-yl]pent-4-yn-1-yl]carbamoyl)propoxy]-2-[(1-methanesulfonylpyrrol-3-yl)formamido]-N-(4-phenyl-1,3-thiazol-2-yl)butanamide] | > 10 µM | C (‘C’ = Maximum degradation <50%) | > 10 µM | < 50% |
| CS(=O)(=O)n1ccc(C(=O)N[C@@H](CCOCCCC(=O)NCCOCCOCCOCCNC(=O)COc2ccc3c(c2)C(=O)N(C2CCC(=O)NC2=O)C3=O)C(=O)Nc2nc(-c3ccccc3)cs2)c1 (stereo partly drawn) [Compound 273, (2S)-4-(3-[[2-(2-[2-[2-(2-[[2-(2,6-dioxopiperidin-3-yl)-1,3-dioxoisoindol-5-yl]oxy]acetamido)ethoxy]ethoxy]ethoxy)ethyl]carbamoyl]propoxy)-2-[(1-methanesulfonylpyrrol-3-yl)formamido]-N-(4-phenyl-1,3-thiazol-2-yl)butanamide] | > 10 µM | C (‘C’ = Maximum degradation <50%) | > 10 µM | < 50% |
| CS(=O)(=O)n1ccc(C(=O)N[C@@H](CCOCCCC(=O)NCCOCCOCCNC(=O)COc2ccc3c(c2)C(=O)N(C2CCC(=O)NC2=O)C3=O)C(=O)Nc2nc(-c3ccccc3)cs2)c1 (stereo partly drawn) [Compound 274, (2S)-4-[3-[(2-[2-[2-(2-[[2-(2,6-dioxopiperidin-3-yl)-1,3-dioxoisoindol-5-yl]oxy]acetamido)ethoxy]ethoxy]ethyl)carbamoyl]propoxy]-2-[(1-methanesulfonylpyrrol-3-yl)formamido]-N-(4-phenyl-1,3-thiazol-2-yl)butanamide] | > 10 µM | C (‘C’ = Maximum degradation <50%) | > 10 µM | < 50% |
| CS(=O)(=O)n1ccc(C(=O)N[C@@H](CCOCCCC(=O)NCCCCS(=O)(=O)CCCNc2cccc3c2C(=O)N(C2CCC(=O)NC2=O)C3=O)C(=O)Nc2nc(-c3ccccc3)cs2)c1 (stereo partly drawn) [Compound 275, (2S)-4-(3-[[4-(3-[[2-(2,6-dioxopiperidin-3-yl)-1,3-dioxoisoindol-4-yl]amino]propanesulfonyl)butyl]carbamoyl]propoxy)-2-[(1-methanesulfonylpyrrol-3-yl)formamido]-N-(4-phenyl-1,3-thiazol-2-yl)butanamide] | > 10 µM | C (‘C’ = Maximum degradation <50%) | > 10 µM | < 50% |
| CN(CCNC(=O)CCCOCC[C@H](NC(=O)c1ccn(S(C)(=O)=O)c1)C(=O)Nc1nc(-c2ccccc2)cs1)CCNc1cccc2c1C(=O)N(C1CCC(=O)NC1=O)C2=O (stereo partly drawn) [Compound 276, (2S)-4-[3-([2-[(2-[[2-(2,6-dioxopiperidin-3-yl)-1,3-dioxoisoindol-4-yl]amino]ethyl)(methyl)amino]ethyl]carbamoyl)propoxy]-2-[(1-methanesulfonylpyrrol-3-yl)formamido]-N-(4-phenyl-1,3-thiazol-2-yl)butanamide; formic acid] | > 10 µM | C (‘C’ = Maximum degradation <50%) | > 10 µM | < 50% |
| CS(=O)(=O)n1ccc(C(=O)N[C@@H](CCOCCCC(=O)NCCC2CCN(c3ccc4c(c3)C(=O)N(C3CCC(=O)NC3=O)C4=O)CC2)C(=O)Nc2nc(-c3ccccc3)cs2)c1 (stereo partly drawn) [Compound 277, (2S)-4-[3-[(2-[1-[2-(2,6-dioxopiperidin-3-yl)-1,3-dioxoisoindol-5-yl]piperidin-4-yl]ethyl)carbamoyl]propoxy]-2-[(1-methanesulfonylpyrrol-3-yl)formamido]-N-(4-phenyl-1,3-thiazol-2-yl)butanamide] | > 10 µM | C (‘C’ = Maximum degradation <50%) | > 10 µM | < 50% |
| CS(=O)(=O)n1ccc(C(=O)N[C@@H](CCOCCCC(=O)NCCOC2CN(c3ccc4c(c3)C(=O)N(C3CCC(=O)NC3=O)C4=O)C2)C(=O)Nc2nc(-c3ccccc3)cs2)c1 (stereo partly drawn) [Compound 278, (2S)-4-(3-[[2-([1-[2-(2,6-dioxopiperidin-3-yl)-1,3-dioxoisoindol-5-yl]azetidin-3-yl]oxy)ethyl]carbamoyl]propoxy)-2-[(1-methanesulfonylpyrrol-3-yl)formamido]-N-(4-phenyl-1,3-thiazol-2-yl)-butanemide] | > 10 µM | C (‘C’ = Maximum degradation <50%) | > 10 µM | < 50% |
| CS(=O)(=O)n1ccc(C(=O)NC(CCOCCCC(=O)NC2CCN(CCOc3ccc4c(c3)C(=O)N(C3CCC(=O)NC3=O)C4=O)CC2)C(=O)Nc2nc(-c3ccccc3)cs2)c1 [Compound 279, (2S)-4-(3-[[1-(2-[[2-(2,6-dioxopiperidin-3-yl)-1,3-dioxoisoindol-5-yl]oxylethyl)piperidin-4-yl]carbamoyl]propoxy)-2-[(1-methanesulfonylpyrrol-3-yl)formamido]-N-(4-phenyl-1,3-thiazol-2-yl)butanamide; formic acid] | > 10 µM | C (‘C’ = Maximum degradation <50%) | > 10 µM | < 50% |
| CS(=O)(=O)n1ccc(C(=O)N[C@@H](CCOCCCC(=O)NCCOc2ccc3c(c2)C(=O)N(C2CCC(=O)NC2=O)C3=O)C(=O)Nc2nc(-c3ccccc3)cs2)c1 (stereo partly drawn) [Compound 280, (2S)-4-[3-[(2-[[2-(2,6-dioxopiperidin-3-yl)-1,3-dioxoisoindol-5-yl]oxy]ethyl)carbamoyl]propoxy]-2-[(1-methanesulfonylpyrrol-3-yl)formamido]-N-(4-phenyl-1,3-thiazol-2-yl)butanamide] | > 10 µM | C (‘C’ = Maximum degradation <50%) | > 10 µM | < 50% |
| CS(=O)(=O)n1ccc(C(=O)N[C@@H](CCOCCCC(=O)NCCCCCCCCNc2cccc3c2C(=O)N(C2CCC(=O)NC2=O)C3=O)C(=O)Nc2nc(-c3ccccc3)cs2)c1 (stereo partly drawn) [Compound 281, (2S)-4-[3-[(8-[[2-(2,6-dioxopiperidin-3-yl)-1,3-dioxoisoindol-4-yl]amino]octyl)carbamoyl]propoxy]-2-[(1-methanesulfonylpyrrol-3-yl)formamido]-N-(4-phenyl-1,3-thiazol-2-yl)butanamide] | > 10 µM | C (‘C’ = Maximum degradation <50%) | > 10 µM | < 50% |
| CS(=O)(=O)n1ccc(C(=O)N[C@@H](CCOCCCC(=O)NCCCCNc2ccc3c(c2)C(=O)N(C2CCC(=O)NC2=O)C3=O)C(=O)Nc2nc(-c3ccccc3)cs2)c1 (stereo partly drawn) [Compound 282, (2S)-4-[3-[(4-[[2-(2,6-dioxopiperidin-3-yl)-1,3-dioxoisoindol-5-yl]amino]butyl)carbamoyl]propoxy]-2-[(1-methanesulfonylpyrrol-3-yl)formamido]-N-(4-phenyl-1,3-thiazol-2-yl)butanamide] | > 10 µM | C (‘C’ = Maximum degradation <50%) | > 10 µM | < 50% |
| CS(=O)(=O)n1ccc(C(=O)N[C@@H](CCOCCCC(=O)NCCCCCCNc2ccc3c(c2)C(=O)N(C2CCC(=O)NC2=O)C3=O)C(=O)Nc2nc(-c3ccccc3)cs2)c1 (stereo partly drawn) [Compound 283, (2S)-4-[3-[(6-[[2-(2,6-dioxopiperidin-3-yl)-1,3-dioxoisoindol-5-yl]amino]hexyl)carbamoyl]propoxy]-2-[(1-methanesulfonylpyrrol-3-yl)formamido]-N-(4-phenyl-1,3-thiazol-2-yl)butanamide] | > 10 µM | C (‘C’ = Maximum degradation <50%) | > 10 µM | < 50% |
